Test results from ChEMBL document CHEMBL3045571, “Repellent activity of essential oils and some of their individual constituents against Tribolium castaneum herbst” (J Agric Food Chem, 2011).

What was measured:
Tribolium castaneum [1] = assay: Repellent activity against Tribolium castaneum (red flour beetle) assessed as induction of repellency measured 4 hr post compound exposure at 0.2 uL/cm2 using 15% compound formulation; format: functional
Tribolium castaneum [2] = assay: Repellent activity against Tribolium castaneum (red flour beetle) assessed as induction of repellency measured 2 hr post compound exposure at 0.2 uL/cm2 using 15% compound formulation; format: functional
Tribolium castaneum [3] = assay: Repellent activity against Tribolium castaneum (red flour beetle) assessed as induction of repellency measured 2 hr post compound exposure at 0.00002 uL/cm2 using 15% compound formulation; format: functional
Tribolium castaneum [4] = assay: Repellent activity against Tribolium castaneum (red flour beetle) assessed as induction of repellency measured 4 hr post compound exposure at 0.0002 uL/cm2 using 15% compound formulation; format: functional
Tribolium castaneum [5] = assay: Repellent activity against Tribolium castaneum (red flour beetle) assessed as induction of repellency measured 4 hr post compound exposure at 0.00002 uL/cm2 using 15% compound formulation; format: functional
Tribolium castaneum [6] = assay: Repellent activity against Tribolium castaneum (red flour beetle) assessed as induction of repellency measured 2 hr post compound exposure at 0.0002 uL/cm2 using 15% compound formulation; format: functional
Tribolium castaneum [7] = assay: Repellent activity against Tribolium castaneum (red flour beetle) assessed as induction of repellency measured 4 hr post compound exposure at 0.002 uL/cm2 using 15% compound formulation; format: functional
Tribolium castaneum [8] = assay: Repellent activity against Tribolium castaneum (red flour beetle) assessed as induction of repellency measured 2 hr post compound exposure at 0.002 uL/cm2 using 15% compound formulation; format: functional
Tribolium castaneum [9] = assay: Repellent activity against Tribolium castaneum (red flour beetle) assessed as induction of repellency measured 2 hr post compound exposure at 0.02 uL/cm2 using 15% compound formulation; format: functional
Tribolium castaneum [10] = assay: Repellent activity against Tribolium castaneum (red flour beetle) assessed as induction of repellency measured 4 hr post compound exposure at 0.02 uL/cm2 using 15% compound formulation; format: functional
[11] = Lipophilicity, logP of the compound; format: physicochemical; conditions: octanol/water

logP [11]	Structure (SMILES)	Repellency (Tribolium castaneum [1]) [%]	Repellency (Tribolium castaneum [2]) [%]	Repellency (Tribolium castaneum [3]) [%]	Repellency (Tribolium castaneum [4]) [%]	Repellency (Tribolium castaneum [5]) [%]	Repellency (Tribolium castaneum [6]) [%]	Repellency (Tribolium castaneum [7]) [%]	Repellency (Tribolium castaneum [8]) [%]	Repellency (Tribolium castaneum [9]) [%]	Repellency (Tribolium castaneum [10]) [%]
	CCCCN(CCC(=O)OCC)C(C)=O	75	78	2	4	-6	16	40	54	60	50
3.07	C=C(C)[C@H]1CC=C(C)C(=O)C1 [(S)(+)CARVONE]	94	96	-10	21	-10	45	30	53	91	85
	O=C(OCc1ccccc1)c1ccccc1 [BENZYL BENZOATE]	91	93	3	18	6	14	23	16	44	44
	O=C(OCc1ccccc1)c1ccccc1O [BENZYL SALICYLATE]	99	94	-29	25	-34	29	46	65	74	78
	Cc1ccc(C(C)C)cc1O [CARVACROL]	90	86	8	8	5	9	-6	-3	46	48
	CC(C)=CCC/C(C)=C/C=O [CITRAL]	98	98	18	51	21	64	55	66	89	79
	CC(C)=CCCC(C)CCO (configuration not stated) [CITRONELLOL]	96	96	30	43	40	45	60	59	74	85
	CC(C)=CCC/C(C)=C/CO [GERANIOL]	95	98	6	35	4	43	58	64	75	74
	CC(=O)OC/C=C(\C)CCC=C(C)C [GERANYL ACETATE]	94	95	5	23	8	21	24	21	60	63
	C=C(C)[C@@H]1CC=C(C)C(=O)C1 [L-CARVONE]	95	100	21	44	19	35	68	55	84	74
	C=CC(=C)CCC=C(C)C [MYRCENE]	93	85	28	30	25	33	65	56	61	71
3.47	CC(C)=CCC/C(C)=C\CO [NEROL]	95	98	8	30	8	39	60	64	84	75
	Cc1ccc(C(C)C)cc1 [P-CYMENE]	69	74	-6	-8	-5	-10	44	43	61	45
